Here are results for eight molecules from ChEMBL document CHEMBL1136839, “3,4-Disubstituted isothiazoles: novel potent inhibitors of VEGF receptors 1 and 2” (Bioorg Med Chem Lett, 2009).

The target of data set [1] is Insulin-like growth factor 1 receptor (Homo sapiens) (UniProt P08069). The data set can be described thus: Inhibition of IGF1R at 10 uM by HTRF assay. On the technique in general: Time-resolved FRET reads energy transfer from a long-lived donor to a nearby acceptor.
Data set [2] deals with Insulin receptor (Homo sapiens) (UniProt P06213). The data set can be described thus: Inhibition of InR at 10 uM by HTRF assay.
Data set [3] deals with Fibroblast growth factor receptor 1 (Homo sapiens) (UniProt P11362). The data set can be described thus: Inhibition of FGFR1 at 10 uM by HTRF assay.
Sequence of Fibroblast growth factor receptor 1 (Homo sapiens) (P11362 22-822 limits assumed): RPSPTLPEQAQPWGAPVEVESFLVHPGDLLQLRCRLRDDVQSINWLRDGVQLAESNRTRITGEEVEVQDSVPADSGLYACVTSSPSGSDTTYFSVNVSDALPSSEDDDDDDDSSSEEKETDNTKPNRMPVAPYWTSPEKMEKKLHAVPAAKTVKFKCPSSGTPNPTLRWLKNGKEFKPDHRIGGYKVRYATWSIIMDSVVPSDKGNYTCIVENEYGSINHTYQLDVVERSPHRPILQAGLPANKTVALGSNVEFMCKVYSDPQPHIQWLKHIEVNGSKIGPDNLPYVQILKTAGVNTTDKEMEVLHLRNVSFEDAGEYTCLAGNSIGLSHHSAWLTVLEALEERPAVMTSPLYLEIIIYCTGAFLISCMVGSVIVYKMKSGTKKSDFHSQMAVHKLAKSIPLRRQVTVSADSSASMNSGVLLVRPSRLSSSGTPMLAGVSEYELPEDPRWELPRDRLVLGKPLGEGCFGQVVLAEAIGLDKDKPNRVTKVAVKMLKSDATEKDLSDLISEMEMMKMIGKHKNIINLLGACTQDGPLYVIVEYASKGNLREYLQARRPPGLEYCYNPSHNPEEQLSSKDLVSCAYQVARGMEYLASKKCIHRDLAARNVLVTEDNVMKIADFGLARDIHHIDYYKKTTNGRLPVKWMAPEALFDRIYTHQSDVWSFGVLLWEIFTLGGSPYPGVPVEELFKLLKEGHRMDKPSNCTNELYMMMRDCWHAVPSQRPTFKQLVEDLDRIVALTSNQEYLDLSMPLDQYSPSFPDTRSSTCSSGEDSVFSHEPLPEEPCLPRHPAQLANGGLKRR
The target in data set [4] is Receptor-type tyrosine-protein kinase FLT3 (Homo sapiens) (UniProt P36888). The data set can be described thus: Inhibition of Flt3 at 10 uM by HTRF assay.
Data set [5] concerns the target Epidermal growth factor receptor (Homo sapiens) (UniProt P00533). Kind of data set: Inhibition of EGFR at 10 uM by HTRF assay.
Data set [6] deals with Receptor tyrosine-protein kinase erbB-2 (Homo sapiens) (UniProt P04626). Kind of data set: Inhibition of ErbB2 at 10 uM by HTRF assay.
Sequence of Receptor tyrosine-protein kinase erbB-2 (Homo sapiens) (P04626 whole entry): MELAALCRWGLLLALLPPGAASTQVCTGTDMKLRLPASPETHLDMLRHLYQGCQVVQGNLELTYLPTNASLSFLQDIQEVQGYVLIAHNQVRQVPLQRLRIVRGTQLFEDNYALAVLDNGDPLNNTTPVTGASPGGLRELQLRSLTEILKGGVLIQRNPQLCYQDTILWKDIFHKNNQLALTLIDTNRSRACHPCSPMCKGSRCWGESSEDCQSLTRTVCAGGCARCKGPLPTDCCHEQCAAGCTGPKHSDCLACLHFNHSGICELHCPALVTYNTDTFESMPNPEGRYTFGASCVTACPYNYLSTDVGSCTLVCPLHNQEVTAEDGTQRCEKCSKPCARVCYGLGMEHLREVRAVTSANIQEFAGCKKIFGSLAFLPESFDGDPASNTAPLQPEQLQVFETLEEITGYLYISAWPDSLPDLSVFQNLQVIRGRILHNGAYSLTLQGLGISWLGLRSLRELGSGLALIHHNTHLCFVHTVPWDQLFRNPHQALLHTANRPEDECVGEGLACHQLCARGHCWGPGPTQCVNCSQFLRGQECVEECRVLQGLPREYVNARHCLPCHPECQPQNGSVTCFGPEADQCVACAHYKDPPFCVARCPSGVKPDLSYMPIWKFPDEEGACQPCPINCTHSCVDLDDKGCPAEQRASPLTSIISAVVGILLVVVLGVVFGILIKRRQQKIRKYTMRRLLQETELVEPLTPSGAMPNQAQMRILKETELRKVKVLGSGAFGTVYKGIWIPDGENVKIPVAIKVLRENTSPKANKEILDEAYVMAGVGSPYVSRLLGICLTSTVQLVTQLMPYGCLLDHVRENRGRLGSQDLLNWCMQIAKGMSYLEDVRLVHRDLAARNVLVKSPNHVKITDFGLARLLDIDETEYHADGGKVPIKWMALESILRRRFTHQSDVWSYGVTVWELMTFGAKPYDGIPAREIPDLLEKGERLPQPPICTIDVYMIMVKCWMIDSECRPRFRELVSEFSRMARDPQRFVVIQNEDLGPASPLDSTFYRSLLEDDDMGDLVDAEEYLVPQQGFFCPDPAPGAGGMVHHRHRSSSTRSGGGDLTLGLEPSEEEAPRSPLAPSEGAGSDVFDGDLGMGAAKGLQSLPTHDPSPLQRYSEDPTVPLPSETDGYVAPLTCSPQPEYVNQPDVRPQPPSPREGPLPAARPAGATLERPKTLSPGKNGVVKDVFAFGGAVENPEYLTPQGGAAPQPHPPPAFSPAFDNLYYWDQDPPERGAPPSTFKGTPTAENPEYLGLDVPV
Data set [7] concerns the target Hepatocyte growth factor receptor (Homo sapiens) (UniProt P08581). Kind of data set: Inhibition of cMET at 10 uM by HTRF assay.
Data set [8] deals with Macrophage-stimulating protein receptor (Homo sapiens) (UniProt Q04912). Kind of data set: Inhibition of Ron at 10 uM by HTRF assay.
Data set [9] is described as follows: Inhibition of PKA at 10 uM by HTRF assay.
The target of data set [10] is Glycogen synthase kinase-3 beta (Homo sapiens) (UniProt P49841). The data set can be described thus: Inhibition of GSK3-beta at 10 uM by HTRF assay.
The target in data set [11] is Bcr/Abl fusion protein (Homo sapiens) (UniProt P00519+P11274). Kind of data set: Inhibition of bcr-Abl at 10 uM by HTRF assay. It is filed as protein assay.
Sequence of Bcr/Abl fusion protein (Homo sapiens) (P00519 whole entry, looked up, the tested form may be a part): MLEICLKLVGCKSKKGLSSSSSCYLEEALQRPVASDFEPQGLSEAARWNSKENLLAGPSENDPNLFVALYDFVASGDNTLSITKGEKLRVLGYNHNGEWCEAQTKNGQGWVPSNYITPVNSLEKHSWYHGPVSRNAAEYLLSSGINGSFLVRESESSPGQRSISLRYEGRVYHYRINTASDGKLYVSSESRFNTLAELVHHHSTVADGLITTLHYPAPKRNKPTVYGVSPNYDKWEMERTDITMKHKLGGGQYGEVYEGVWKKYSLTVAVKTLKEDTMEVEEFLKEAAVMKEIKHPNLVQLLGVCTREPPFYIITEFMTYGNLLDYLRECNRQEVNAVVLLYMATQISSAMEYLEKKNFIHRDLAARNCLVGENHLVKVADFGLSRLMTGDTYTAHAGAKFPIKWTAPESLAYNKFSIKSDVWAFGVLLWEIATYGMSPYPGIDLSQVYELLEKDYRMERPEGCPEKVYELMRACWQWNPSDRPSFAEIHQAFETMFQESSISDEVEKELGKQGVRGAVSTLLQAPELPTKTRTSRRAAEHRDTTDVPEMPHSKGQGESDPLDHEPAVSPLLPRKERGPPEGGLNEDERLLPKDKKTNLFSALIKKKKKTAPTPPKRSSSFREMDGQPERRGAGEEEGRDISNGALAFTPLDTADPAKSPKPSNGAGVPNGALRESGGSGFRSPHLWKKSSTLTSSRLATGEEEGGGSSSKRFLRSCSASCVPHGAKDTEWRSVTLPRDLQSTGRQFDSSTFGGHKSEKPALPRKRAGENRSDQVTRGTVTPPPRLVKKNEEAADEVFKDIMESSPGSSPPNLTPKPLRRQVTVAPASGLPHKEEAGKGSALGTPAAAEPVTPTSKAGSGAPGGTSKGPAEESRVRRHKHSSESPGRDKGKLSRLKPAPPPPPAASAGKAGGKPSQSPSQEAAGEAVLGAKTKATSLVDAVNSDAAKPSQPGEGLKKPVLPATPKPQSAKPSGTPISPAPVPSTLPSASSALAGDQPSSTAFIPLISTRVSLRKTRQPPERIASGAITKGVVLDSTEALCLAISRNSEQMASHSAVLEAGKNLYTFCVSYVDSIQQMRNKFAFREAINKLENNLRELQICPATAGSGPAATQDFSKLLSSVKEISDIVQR
Sequence of Bcr/Abl fusion protein (Homo sapiens) (P11274 whole entry, looked up, the tested form may be a part): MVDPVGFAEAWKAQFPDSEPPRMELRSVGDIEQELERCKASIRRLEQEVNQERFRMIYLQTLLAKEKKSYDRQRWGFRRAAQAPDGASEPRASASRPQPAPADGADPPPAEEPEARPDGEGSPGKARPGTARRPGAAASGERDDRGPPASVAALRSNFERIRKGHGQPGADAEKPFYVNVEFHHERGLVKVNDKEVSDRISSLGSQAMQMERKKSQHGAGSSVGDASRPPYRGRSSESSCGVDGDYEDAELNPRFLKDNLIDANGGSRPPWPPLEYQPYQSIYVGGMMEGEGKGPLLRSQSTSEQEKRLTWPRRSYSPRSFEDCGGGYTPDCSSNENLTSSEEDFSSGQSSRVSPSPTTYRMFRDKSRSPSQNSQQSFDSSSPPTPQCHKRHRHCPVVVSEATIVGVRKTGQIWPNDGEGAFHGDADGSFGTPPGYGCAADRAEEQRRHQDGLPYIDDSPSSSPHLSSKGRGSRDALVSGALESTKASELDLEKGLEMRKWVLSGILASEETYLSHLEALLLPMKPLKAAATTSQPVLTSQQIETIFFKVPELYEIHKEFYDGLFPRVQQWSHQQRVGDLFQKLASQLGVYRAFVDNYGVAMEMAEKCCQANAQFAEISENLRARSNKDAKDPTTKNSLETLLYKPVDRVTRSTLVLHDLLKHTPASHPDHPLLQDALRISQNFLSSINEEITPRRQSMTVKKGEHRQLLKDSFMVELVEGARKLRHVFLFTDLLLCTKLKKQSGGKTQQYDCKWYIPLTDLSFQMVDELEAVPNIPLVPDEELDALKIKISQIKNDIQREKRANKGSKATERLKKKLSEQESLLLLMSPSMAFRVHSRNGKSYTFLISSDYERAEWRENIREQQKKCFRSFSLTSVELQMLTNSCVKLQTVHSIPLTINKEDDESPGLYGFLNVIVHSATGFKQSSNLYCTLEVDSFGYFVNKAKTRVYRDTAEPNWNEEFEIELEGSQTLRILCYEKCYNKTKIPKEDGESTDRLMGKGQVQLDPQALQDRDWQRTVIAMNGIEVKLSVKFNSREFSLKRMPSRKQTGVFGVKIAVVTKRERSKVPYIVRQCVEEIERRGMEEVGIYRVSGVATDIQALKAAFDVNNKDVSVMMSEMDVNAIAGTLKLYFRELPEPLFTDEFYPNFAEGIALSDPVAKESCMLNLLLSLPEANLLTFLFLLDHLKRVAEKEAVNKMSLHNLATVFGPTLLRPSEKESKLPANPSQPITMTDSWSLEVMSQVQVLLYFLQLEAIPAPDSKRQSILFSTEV
Data set [12] concerns the target Cyclin-dependent kinase 1 (Homo sapiens) (UniProt P06493). Kind of data set: Inhibition of CDK1 at 10 uM by HTRF assay.
Data set [13] deals with Cyclin-dependent kinase 2 (Homo sapiens) (UniProt P24941). Kind of data set: Inhibition of CDK2 at 10 uM by HTRF assay.
Data set [14] deals with Proto-oncogene tyrosine-protein kinase Src (Homo sapiens) (UniProt P12931). The data set can be described thus: Inhibition of Src at 10 uM by HTRF assay.
Data set [15] can be described thus: Inhibition of Bcr-Abl T315 mutant at 10 uM by HTRF assay.
Data set [16] in a line: Intrinsic permeability across human Caco-2 cells.
Data set [17] has as its target Serine/threonine-protein kinase PLK1 (Homo sapiens) (UniProt P53350). Kind of data set: Inhibition of Plk1 at 10 uM by HTRF assay.
Data set [18] addresses T1, Vascular endothelial growth factor receptor 2 (Homo sapiens, UniProt P35968). Kind of data set: Inhibition of VEGFR2 assessed as blockade of pGAT-biotin phosphorylation in presence of 2 uM ATP by HTRF assay.
Data set [19] concerns the target Vascular endothelial growth factor receptor 1 (Homo sapiens, UniProt P17948). Kind of data set: Inhibition of VEGFR1 assessed as blockade of pGAT-biotin phosphorylation in presence of 2 uM ATP by HTRF assay.
Data set [20] addresses T1, Vascular endothelial growth factor receptor 2. The data set can be described thus: Inhibition of VEGFR2 expressed in HEK293 cells assessed as inhibition of receptor phosphorylation by ELISA. The format is cell-based. For orientation: ELISA stands for enzyme-linked immunosorbent assay.
For data set [21], the target named is T2, Aurora kinase A (Homo sapiens) (UniProt O14965).
T2 sequence (whole entry): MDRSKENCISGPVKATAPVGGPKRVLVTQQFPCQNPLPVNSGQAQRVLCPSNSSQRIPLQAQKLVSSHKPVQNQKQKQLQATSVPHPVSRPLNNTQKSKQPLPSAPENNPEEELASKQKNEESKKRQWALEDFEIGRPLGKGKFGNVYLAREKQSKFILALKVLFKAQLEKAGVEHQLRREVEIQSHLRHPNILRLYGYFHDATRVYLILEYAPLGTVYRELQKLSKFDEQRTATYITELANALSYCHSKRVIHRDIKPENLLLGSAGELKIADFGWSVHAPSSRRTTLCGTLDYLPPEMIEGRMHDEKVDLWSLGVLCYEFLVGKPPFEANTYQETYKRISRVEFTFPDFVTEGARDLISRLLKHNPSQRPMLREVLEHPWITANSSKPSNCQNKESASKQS
The data set can be described thus: Inhibition of Aurora A at 10 uM by HTRF assay.

Data set [22] addresses Aurora kinase B (Homo sapiens) (UniProt Q96GD4). The data set can be described thus: Inhibition of Aurora B at 10 uM by HTRF assay.

What is called inhibition is how much of the control response was suppressed. A high value points to a strong effect. One may read the Papp as the rate of passage across a membrane or cell layer, normalised by area and donor concentration. High values mean fast passage, low ones slow passage. As usually defined, the IC50 is the concentration that gives 50% inhibition.

Some results are limits rather than exact numbers.

Sequence of Cyclin-dependent kinase 1 (Homo sapiens) (P06493 whole entry, looked up): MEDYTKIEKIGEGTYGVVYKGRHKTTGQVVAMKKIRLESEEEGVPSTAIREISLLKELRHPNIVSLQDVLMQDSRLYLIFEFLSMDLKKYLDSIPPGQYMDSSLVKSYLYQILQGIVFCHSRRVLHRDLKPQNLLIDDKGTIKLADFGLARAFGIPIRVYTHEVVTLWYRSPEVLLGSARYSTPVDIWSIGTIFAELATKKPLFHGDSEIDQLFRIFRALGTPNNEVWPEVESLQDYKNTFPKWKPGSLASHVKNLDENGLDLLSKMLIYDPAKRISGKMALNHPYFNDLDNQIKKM
Sequence of Aurora kinase B (Homo sapiens) (Q96GD4 whole entry): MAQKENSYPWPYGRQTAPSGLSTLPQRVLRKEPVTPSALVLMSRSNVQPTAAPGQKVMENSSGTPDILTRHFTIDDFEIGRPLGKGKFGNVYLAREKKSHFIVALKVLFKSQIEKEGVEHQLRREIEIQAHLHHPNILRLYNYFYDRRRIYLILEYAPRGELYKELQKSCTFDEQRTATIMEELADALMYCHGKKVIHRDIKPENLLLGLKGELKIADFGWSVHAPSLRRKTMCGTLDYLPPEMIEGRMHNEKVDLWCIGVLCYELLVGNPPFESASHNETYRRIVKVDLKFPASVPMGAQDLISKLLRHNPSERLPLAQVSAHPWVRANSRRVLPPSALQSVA

Take `CC(C)(C)c1cccc(NC(=O)c2nscc2NCc2ccncc2)c1`: the inhibition in data set [1], in [2], in [3], in data set [4], in data set [5] and in data set [6] was less than 30% throughout. Besides, the inhibition in [7], in data set [8], in data set [9], in data set [10], in data set [11] and in [12] was less than 30% in each case. Further, the inhibition in data set [13], in data set [14] and in data set [15] was less than 30% throughout. In data set [16], this molecule gave a Papp of 5.58 ×10⁻⁶ cm/s.
For `O=C(Nc1cccc(OC(F)(F)F)c1)c1nscc1NCc1ccncc1`, the inhibition in data set [17], in data set [1], in data set [2], in data set [3], in data set [4] and in data set [5] was less than 30% each time. Besides, the inhibition in [6], in [7], in data set [8], in data set [9], in [10] and in data set [11] was less than 30% each time. In addition, the inhibition in [12], in data set [13], in data set [14], in data set [21], in data set [22] and in data set [15] was less than 30% in each case. Also, the IC50 was 33 nM in data set [18], 260 nM in data set [19] and 41 nM in [20]. This molecule had a Papp in data set [16] of 7.93 ×10⁻⁶ cm/s.
`Cc1ccc(NC(=O)c2nscc2NCc2ccncc2)cc1C(F)(F)F`: the inhibition in data set [17], in [1], in data set [2], in data set [3], in data set [4] and in data set [5] was less than 30% throughout. Also, the inhibition in data set [6], in [7], in data set [8], in [9], in data set [10] and in data set [11] was less than 30% throughout. For the same molecule, the inhibition in data set [12], in data set [13], in [14], in data set [21], in data set [22] and in data set [15] was less than 30% each time. Moreover, the figures for the IC50 in data set [18], in data set [19] and in [20] were 43 nM, 190 nM and 56 nM, respectively. In [16], this molecule showed a Papp of 5.9 ×10⁻⁶ cm/s.
For the molecule `O=C(Nc1ccc(C(F)(F)F)c(Cl)c1)c1nscc1NCc1ccncc1`, the inhibition in data set [17], in data set [1], in data set [2], in [3], in data set [4] and in [5] was less than 30% each time. The inhibition in data set [6], in data set [7], in data set [8], in [9], in data set [10] and in data set [11] was less than 30% in each case. The inhibition in data set [12], in data set [13], in data set [14], in data set [21], in data set [22] and in data set [15] was less than 30% throughout. In addition, the values for the IC50 in [18], in [19] and in data set [20] were 890 nM, 1800 nM and 2050 nM, respectively.
On to `O=C(Nc1cccc(Br)c1)c1nscc1NCc1ccncc1`, for which the inhibition in data set [17], in data set [1], in [2], in [3], in data set [4] and in data set [5] was less than 30% in each case. Moreover, the inhibition in [6], in [7], in data set [8], in data set [9], in [10] and in [11] was less than 30% throughout. The inhibition in data set [12], in data set [13], in [14], in [21], in [22] and in data set [15] was less than 30% in each case. Also, the IC50 in [18] is 27 nM; in data set [19], 55 nM; in [20] it was 210 nM.
Regarding `O=C(NCc1ccc2c(c1)OCO2)c1nscc1NCc1ccncc1`, the inhibition in [17], in [1], in [2], in data set [3], in data set [4] and in data set [5] was less than 30% throughout. Moreover, the inhibition in [6], in [7], in data set [8], in data set [9], in data set [10] and in data set [11] was less than 30% each time. The inhibition in [12], in data set [13], in data set [14], in [21], in data set [22] and in [15] was less than 30% in each case. In addition, the IC50 in data set [18] worked out at 650 nM; in data set [19], 700 nM; in data set [20], 790 nM.
For `O=C(Nc1cccc(C(F)(F)F)c1)c1nscc1NCc1ccnc2ccccc12`, the inhibition in data set [1], in [2], in data set [3], in [4], in data set [5] and in data set [6] was less than 30% in each case. Also, the inhibition in [7], in data set [8], in data set [9], in [10], in data set [11] and in [12] was less than 30% throughout. For the same molecule, the inhibition in data set [13], in data set [14] and in [15] was less than 30% throughout. Besides, in [16], the Papp is 2.72 ×10⁻⁶ cm/s.
With `O=C(Nc1cccc(Br)c1)c1nscc1NCc1ccnc2ccccc12`, the inhibition in data set [1], in data set [2], in data set [3], in data set [4], in data set [5] and in [6] was less than 30% each time. In addition, the inhibition in data set [7], in [8], in [9], in [10], in data set [11] and in data set [12] was less than 30% in each case. Also, the inhibition in [13], in [14] and in data set [15] was less than 30% in each case. The molecule further showed a Papp in [16] of 3.58 ×10⁻⁶ cm/s.
